Activity calls are given as the source filed them. The rule behind the calls is not given here.
How the values were obtained:
[1] = tested on: JJN-3; assay: Down regulation of IKZF1 protein expression in human JJN-3 cells at 10 to 50 uM after 48 hrs by immunoblotting analysis; type: functional, cell-based; settings: dose 10-50 µM
[2] = Induction of apoptosis in human KMM-1 cells assessed as necrotic cells at 10 uM after 72 hrs by Annexin V/PropidiumIodide staining based flow cytometric analysis (reference value: 8 +/-1%); type: functional
[3] = Cytotoxicity against human Mononuclear cells assessed as reduction in cll viability at 10 uM after 48 hrs by PrestoBlue cell viability assay; type: cell-based; settings: mononuclear cell line
[4] = tested on: MM.1R; assay: Down regulation of IRF4 protein expression in human MM1.R cells at 10 to 50 uM after 48 hrs by immunoblotting analysis; type: functional, cell-based; settings: dose 10-50 µM
[5] = Induction of apoptosis in human KMM-1 cells assessed as apoptotic cells at 10 uM after 72 hrs by Annexin V/PropidiumIodide staining based flow cytometric analysis relative to control; type: functional
[6] = tested on: JJN-3; assay: Down regulation of IRF4 protein expression in human JJN-3 cells at 10 to 50 uM after 48 hrs by immunoblotting analysis; type: functional, cell-based; settings: dose 10-50 µM
[7] = tested on: B cell; assay: Cytotoxicity against human naive B cells assessed as reduction in cll viability at 10 uM after 48 hrs by PrestoBlue cell viability assay; type: cell-based
[8] = Induction of apoptosis in human KMM-1 cells assessed as early apoptotic cells at 10 uM after 72 hrs by Annexin V/PropidiumIodide staining based flow cytometric analysis (reference value: 1 +/- 0.4%); type: functional
[9] = Growth inhibition of human MM1.R cells at 100 uM after 48 hrs by PrestoBlue cell viability assay relative to control; type: functional; settings: MM.1R, read-out: GI
[10] = (§1) Growth inhibition of human KMM-1 cells at 10 uM after 48 hrs by PrestoBlue cell viability assay relative to control; type: functional; settings: read-out: GI
[11] = Induction of apoptosis in human KMM-1 cells assessed as viable cells at 10 uM after 72 hrs by Annexin V/PropidiumIodide staining based flow cytometric analysis (reference value: 87 +/- 1%); type: functional; settings: read-out: Activity
[12] = tested on: MM.1R; assay: Down regulation of IKZF3 protein expression in human MM1.R cells at 10 to 50 uM after 48 hrs by immunoblotting analysis; type: functional, cell-based; settings: dose 10-50 µM
[13] = Induction of apoptosis in human MM1.R cells assessed as apoptotic cells at 10 uM after 72 hrs by Annexin V/PropidiumIodide staining based flow cytometric analysis relative to control; type: functional, MM.1R
[14] = tested on: MM.1R; assay: Down regulation of IKZF1 protein expression in human MM1.R cells at 10 to 50 uM after 48 hrs by immunoblotting analysis; type: functional, cell-based; settings: dose 10-50 µM
[15] = Growth inhibition of human KMM-1 cells at 10 to 100 uM after 72 hrs by PrestoBlue cell viability assay relative to control; type: functional; settings: dose 10-100 µM
[16] = Induction of apoptosis in human KMM-1 cells assessed as late apoptotic cells at 10 uM after 72 hrs by Annexin V/PropidiumIodide staining based flow cytometric analysis (reference value: 4 +/- 0.5%); type: functional
[17] = tested on: KMM-1; assay: Growth inhibition of human KMM-1 cells at 0.001 to 50 uM after 48 hrs by PrestoBlue cell viability assay; type: functional, cell-based; settings: dose 0.001-50 µM
[18] = Growth inhibition of human KMM-1 cells after 48 hrs by PrestoBlue cell viability assay; type: functional, cell-based; settings: KMM-1, 48 h
[19] = Growth inhibition of human KMM-1 cells at 50 uM after 48 hrs by PrestoBlue cell viability assay relative to control; type: functional; settings: read-out: GI
[20] = Growth inhibition of human MM1.R cells after 48 hrs by PrestoBlue cell viability assay; type: functional; settings: MM.1R
[21] = tested on: JJN-3; assay: Down regulation of SP1 protein expression in human JJN-3 cells at 10 uM after 48 hrs by immunoblotting analysis; type: functional, cell-based
[22] = tested on: MM.1R; assay: Induction of apoptosis in human MM1.R cells assessed as increase in cleaved caspace-8 protein expression at 5 to 25 uM after 48 hrs by immunoblotting analysis; type: functional, cell-based; settings: dose 5-25 µM
[23] = tested on: MM.1R; assay: Down regulation of SP1 protein expression in human MM1.R cells at 10 uM after 48 hrs by immunoblotting analysis; type: functional, cell-based
[24] = tested on: A549; assay: Cytotoxicity against human A549 cells assessed as reduction in cell viability after 48 hrs by MTT assay; type: functional, cell-based; settings: A549, 48 h
[25] = Growth inhibition of human KMM-1 cells at 25 uM after 48 hrs by PrestoBlue cell viability assay relative to control; type: functional; settings: read-out: GI
[26] = tested on: KMM-1; assay: Down regulation of IRF4 mRNA expression in human KMM-1 cells at 50 uM incubated for 48 hrs by 48 hrs by RT-PCR analysis; type: functional, cell-based
[27] = Induction of apoptosis in human KMM-1 cells assessed as early apoptotic cells at 25 uM after 72 hrs by Annexin V/PropidiumIodide staining based flow cytometric analysis (reference value: 1 +/- 0.4%); type: functional
[28] = tested on: JJN-3; assay: Growth inhibition of human JJN-3 cells after 48 hrs by PrestoBlue cell viability assay; type: functional, cell-based; settings: JJN-3, 48 h
[29] = Induction of apoptosis in human KMM-1 cells assessed as late apoptotic cells at 25 uM after 72 hrs by Annexin V/PropidiumIodide staining based flow cytometric analysis (reference value: 4 +/- 0.5%); type: functional
[30] = tested on: KMM-1; assay: Growth inhibition of human KMM-1 cells at 1 to 10 uM after 48 hrs by PrestoBlue cell viability assay; type: functional, cell-based; settings: dose 1-10 µM
[31] = Induction of apoptosis in human KMM-1 cells assessed as viable cells at 25 uM after 72 hrs by Annexin V/PropidiumIodide staining based flow cytometric analysis (reference value: 87 +/- 1%); type: functional; settings: read-out: Activity
[32] = tested on: KMM-1; assay: Growth inhibition of human KMM-1 cells assessed as induction morphological changes at 25 to 50 uM after 48 hrs by phase contrast microscopic method; type: functional, cell-based; settings: dose 25-50 µM
[33] = Down regulation of IRF4 protein expression in human KMM-1 cells at 50 uM incubated for 48 hrs by 48 hrs by immunoblotting analysis relative to control; type: functional
[34] = tested on: B cell; assay: Cytotoxicity against human naive B cells assessed as reduction in cll viability at 25 to 50 uM after 48 hrs by PrestoBlue cell viability assay; type: cell-based; settings: dose 25-50 µM
[35] = tested on: IMR-32; assay: Cytotoxicity against human IMR-32 cells assessed as reduction in cell viability after 48 hrs by MTT assay; type: functional, cell-based; settings: IMR-32, 48 h
[36] = Cytotoxicity against human Mononuclear cells assessed as reduction in cll viability at 25 to 50 uM after 48 hrs by PrestoBlue cell viability assay; type: cell-based; settings: mononuclear cell line, dose 25-50 µM
[37] = Induction of apoptosis in human KMM-1 cells assessed as necrotic cells at 25 uM after 72 hrs by Annexin V/PropidiumIodide staining based flow cytometric analysis (reference value: 8 +/-1%); type: functional
[38] = tested on: KMM-1; assay: Growth inhibition of human KMM-1 cells at 1 to 100 uM after 72 hrs by PrestoBlue cell viability assay; type: functional, cell-based; settings: dose 1-100 µM
[39] = tested on: KMM-1; assay: as §1; type: functional

Nc1cccc2c1CN(C1CCC(=O)NC1=O)C2=O (configuration not stated) [LENALIDOMIDE]
Activity [1]: Active | Activity [2]: 12% | Activity [3]: Non-Toxic | Activity [4]: inactive | Activity [5]: 17.4% | Activity [6]: Active | Activity [7]: Non-Toxic | Activity [8]: 4% | inhibition of growth at 100 µM [9]: 47% | inhibition of growth at 10 µM [10]: 7.5% | viability at 10 µM [11]: 78% | Activity [12]: inactive | Activity [13]: 46% | Activity [14]: Active | growth inhibition (GI) [15]: >25% | Activity [16]: 6%

Nc1cccc2c1C(=O)N(C1CCC(=O)NC1=O)C2=O (configuration not stated) [POMALIDOMIDE]
growth inhibition (GI) [17]: inactive | Activity [5]: 18.4% | Activity [13]: 43%

O=C(/C=C/c1ccc(O)c(O)c1)OCCc1ccccc1 [CAFFEIC ACID PHENETHYL ESTER]
IC50 [18]: 37.5 µM | inhibition of growth at 50 µM [19]: 59% | IC50 [20]: 17.8 µM | Activity [21]: Active | Activity [2]: 17% | Activity [22]: Active | Activity [23]: Active | IC50 [24]: 80 µM | inhibition of growth at 25 µM [25]: 38.7% | Activity [26]: Active | Activity [5]: 25.8% | Activity [27]: 4% | IC50 [28]: 30 µM | Activity [29]: 15% | growth inhibition (GI) [30]: Active | viability at 25 µM [31]: 51% | growth inhibition (GI) [32]: Active | Activity [33]: 26% | Activity [34]: Non-Toxic | Activity [8]: 3% | IC50 [35]: 5 µM | viability at 10 µM [11]: 71% | Activity [36]: Non-Toxic | Activity [37]: 31% | Activity [13]: 41% | growth inhibition (GI) [38]: Active | Activity [16]: 9%

COc1cc(/C=C/C(=O)OCCc2ccccc2)ccc1O
growth inhibition (GI) [39]: inactive

From ChEMBL document CHEMBL4715865, “Antimyeloma Potential of Caffeic Acid Phenethyl Ester and Its Analogues through Sp1 Mediated Downregulation of IKZF1-IRF4-MYC Axis” (J Nat Prod, 2020)
